Data as given in PubChem BioAssay AID2060889 (Molecular Pharmacology Branch, DTP, NCI, 2025).

Tested on: LG0567-F671-PDC complex spheroids viability
Assay: Anticancer human tumor LG0567-F671-PDC patient-derived lung adenocarcinoma cell line growth inhibition [RAS]
Settings: for IC50: curve of first compound; for viability, T/C: stronger effect = lower value
Excerpt: RAS pathway inhibitors in Combinations in Complex Spheroids
A high-throughput screen of multi-cell type tumor spheroids was designed to identify active combinations of RAS pathway inhibitors and targeted small molecules. Complex spheroids include a stromal component modeled by human endothelial cells (HUVEC) and fibroblasts modeled by human mesenchymal stem cells (MSCs). The concentration ranges selected for each drug and investigational agent were based upon clinically achievable concentrations if the clinical Cmax of the agent was known.
Compounds. The drugs and investigational agents: abemaciclib (NSC768073), cobimetinib (NSC768068), divarasib (GDC6063, NSC841802), docetaxel (NSC628503), GDC-1971 (RLY-1971, NSC841576), gemcitabine (NSC613327), inavolisib (NSC800729), ipatasertib (NSC767898), KB-0742 (NSC834161), MRTX-1133 (NSC836407), osimertinib (NSC779217), RMC-4630 (NSC839698), RMC-6236 (NSC851965), RMC-6291 (NSC852671), Ro-3306 (NSC812927), sapanisertib (NSC764658), SN-38 (NSC673596), staurosporine (NSC755774), SY5609 (NSC837396), and tovorafenib (DAY101, NSC766906), were obtained from the National Cancer Institute (NCI) Developmental Therapeutics Program Chemical Repository. The FDA-approved anticancer drug set is available from the NCI Developmental Therapeutics Program. […] The stock solutions were prepared in dimethyl sulfoxide (DMSO, Sigma-Aldrich, St. Louis, MO, cat. D2650) at 800-fold the tested concentration and stored at -70 degrees C prior to their use. All drugs and investigational agents were tested over a range starting from a high concentration at or near the clinical Cmax and decreasing in half-log increments. If the clinical Cmax for an agent had not been determined, the highest concentration tested was 10 microM.
Cell Culture. All cells were maintained in an incubator at 37 degrees C and 5% CO2 with 95% humidity. The PDC lines were cultured according to standard operating procedures established by the NCI PDMR. All PDCs were thawed and cultured in Matrigel-coated flasks prepared with a working solution of 1X Ham's F-12 nutrient mix, without supplementation (Invitrogen, Waltham, MA, cat. 11765054), 100 U/mL penicillin-streptomycin (Invitrogen, cat. 15140122), and 2.5% Matrigel (Corning Inc., Corning, NY, cat. 354248) for the first three passages. The 362531-283-R-J2-PDC and 782815-120-R-J1-PDC lines were cultured in 6C/Colon 1B media, which includes advanced DMEM/F-12 (Thermo Fisher Scientific, cat. 12634028), 10 mM HEPES (Thermo Fisher Scientific, cat. 15630080), 1X GlutaMAX supplement (Thermo Fisher Scientific, cat. 35050061), 0.1 mg/mL primocin (InvivoGen, San Diego, CA, cat. ant-pm-2), 10% defined fetal bovine serum, heat inactivated (HyClone Laboratories Inc., Logan, UT, cat. SH30070.03HI), 50% L-WRN conditioned media (ATCC, cat. CRL-3276), 1.25 mM N-Acetyl-L-cysteine (Sigma-Aldrich, cat. A9165), 10 mM nicotinamide (Sigma-Aldrich, cat. N0636), 1X B-27 supplement (Thermo Fisher Scientific, cat. 17504044), 1X N-2 supplement (Thermo Fisher Scientific, cat. 17502048), 50 ng/mL human EGF (Thermo Fisher Scientific, cat. PHG0311), and 10 microM Y-27632 dihydrochloride (Tocris Bioscience, cat. 1254). The K12877-001-R-J1-PDC line was cultured in 6I media, which includes all 6C/Colon 1B media plus 10 ng/mL human FGF-10 (PeproTech, cat. 100-26), 1 ng/mL human FGF-2 (PeproTech, cat. 100-18B), 1 µM prostaglandin E2 (Tocris Bioscience, cat. 2296), […] hydrocortisone (Sigma-Aldrich, cat. H4001), and […] bovine insulin (Sigma-Aldrich, cat. I6634). The K86415-001-R-J1-PDC line was cultured in 6D media, which includes all 6C/Colon 1B media components minus the L-WRN conditioned media. The 485176-168-R4-J1-PDC was cultured in PANC media, which includes all 6C/Colon 1B media plus 100 ng/mL human FGF-10 (PeproTech, cat. 100-26), 500 nM SB-431542 (Selleckchem, cat. S1067), and 10 nM gastrin (Tocris Bioscience, cat. 3006). […]

[1] = second compound 0.0316 µM, first compound 0.0316 µM
[2] = second compound 0.0316 µM, first compound 0.1 µM
[3] = second compound 0.0316 µM, first compound 0.316 µM
[4] = second compound 0.0316 µM, first compound 1 µM
[5] = second compound 0.0316 µM, first compound 3.16 µM
[6] = second compound 0.0316 µM, first compound 10 µM
[7] = second compound 0.1 µM, first compound 0.0316 µM
[8] = second compound 0.1 µM, first compound 0.1 µM
[9] = second compound 0.1 µM, first compound 0.316 µM
[10] = second compound 0.1 µM, first compound 1 µM
[11] = second compound 0.1 µM, first compound 3.16 µM
[12] = second compound 0.1 µM, first compound 10 µM
[13] = second compound 0.316 µM, first compound 0.0316 µM
[14] = second compound 0.316 µM, first compound 0.1 µM
[15] = second compound 0.316 µM, first compound 0.316 µM
[16] = second compound 0.316 µM, first compound 1 µM
[17] = second compound 0.316 µM, first compound 3.16 µM
[18] = second compound 0.316 µM, first compound 10 µM
[19] = second compound 1 µM, first compound 0.0316 µM
[20] = second compound 1 µM, first compound 0.1 µM
[21] = second compound 1 µM, first compound 0.316 µM
[22] = second compound 1 µM, first compound 1 µM
[23] = second compound 1 µM, first compound 3.16 µM
[24] = second compound 1 µM, first compound 10 µM
[25] = second compound 3.16 µM, first compound 0.0316 µM
[26] = second compound 3.16 µM, first compound 0.1 µM
[27] = second compound 3.16 µM, first compound 0.316 µM
[28] = second compound 3.16 µM, first compound 1 µM
[29] = second compound 3.16 µM, first compound 3.16 µM
[30] = second compound 3.16 µM, first compound 10 µM
[31] = second compound 10 µM, first compound 0.0316 µM
[32] = second compound 10 µM, first compound 0.1 µM
[33] = second compound 10 µM, first compound 0.316 µM
[34] = second compound 10 µM, first compound 1 µM
[35] = second compound 10 µM, first compound 3.16 µM
[36] = second compound 10 µM, first compound 10 µM
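Further: spheroids exposed to compound for seven days before readout.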
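Wherever IC50 is given: luminescence signal used as a proxy for viable cells.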

CC(C)NCC(C(=O)N1CCN(c2ncnc3c2C(C)CC3O)CC1)c1ccc(Cl)cc1 (stereo unspecified) + C#Cc1c(F)ccc2cc(O)cc(-c3ncc4c(N5CC6CCC(C5)N6)nc(OCC56CCCN5CC(F)C6)nc4c3F)c12
IC50 (second compound 0.0316 µM): > 10000 nM
IC50 (second compound 0.1 µM): > 10000 nM
IC50 (second compound 0.316 µM): 62.2 nM
IC50 (second compound 1 µM): < 31.6 nM
IC50 (second compound 3.16 µM): < 31.6 nM
IC50 (second compound 10 µM): < 31.6 nM
viability, T/C [1]: 93.5%
viability, T/C [2]: 88.3%
viability, T/C [3]: 72%
viability, T/C [4]: 60.1%
viability, T/C [5]: 63.5%
viability, T/C [6]: 55%
viability, T/C [7]: 84.2%
viability, T/C [8]: 66%
viability, T/C [9]: 70.6%
viability, T/C [10]: 51.3%
viability, T/C [11]: 59.3%
viability, T/C [12]: 56.4%
viability, T/C [13]: 50.3%
viability, T/C [14]: 50.1%
viability, T/C [15]: 54.7%
viability, T/C [16]: 35.9%
viability, T/C [17]: 47%
viability, T/C [18]: 51.6%
viability, T/C [19]: 35.4%
viability, T/C [20]: 29.8%
viability, T/C [21]: 30%
viability, T/C [22]: 28.1%
viability, T/C [23]: 28.2%
viability, T/C [24]: 31.2%
viability, T/C [25]: 19.4%
viability, T/C [26]: 17.9%
viability, T/C [27]: 19.2%
viability, T/C [28]: 13.9%
viability, T/C [29]: 14.9%
viability, T/C [30]: 13.4%
viability, T/C [31]: 12.4%
viability, T/C [32]: 12.7%
viability, T/C [33]: 11.1%
viability, T/C [34]: 9.42%
viability, T/C [35]: 8.58%
viability, T/C [36]: 5.74%

CC(C)n1nc(-c2ccc3oc(N)nc3c2)c2c(N)ncnc21 + C#Cc1c(F)ccc2cc(O)cc(-c3ncc4c(N5CC6CCC(C5)N6)nc(OCC56CCCN5CC(F)C6)nc4c3F)c12
IC50 (second compound 0.0316 µM): 19.6 nM
IC50 (second compound 0.1 µM): 17.8 nM
IC50 (second compound 0.316 µM): 1.32 nM
IC50 (second compound 1 µM): < 0.316 nM
IC50 (second compound 3.16 µM): < 0.316 nM
IC50 (second compound 10 µM): < 0.316 nM
viability, T/C (second compound 0.0316 µM, first compound 0.000316 µM): 90.7%
viability, T/C (second compound 0.0316 µM, first compound 0.001 µM): 77.8%
viability, T/C (second compound 0.0316 µM, first compound 0.00316 µM): 83.4%
viability, T/C (second compound 0.0316 µM, first compound 0.01 µM): 58.3%
viability, T/C [1]: 44.3%
viability, T/C [2]: 34.1%
viability, T/C (second compound 0.1 µM, first compound 0.000316 µM): 73.3%
viability, T/C (second compound 0.1 µM, first compound 0.001 µM): 73.5%
viability, T/C (second compound 0.1 µM, first compound 0.00316 µM): 61.1%
viability, T/C (second compound 0.1 µM, first compound 0.01 µM): 58.2%
viability, T/C [7]: 43.2%
viability, T/C [8]: 33%
viability, T/C (second compound 0.316 µM, first compound 0.000316 µM): 52.9%
viability, T/C (second compound 0.316 µM, first compound 0.001 µM): 48.9%
viability, T/C (second compound 0.316 µM, first compound 0.00316 µM): 49.1%
viability, T/C (second compound 0.316 µM, first compound 0.01 µM): 40.8%
viability, T/C [13]: 34.2%
viability, T/C [14]: 28.5%
viability, T/C (second compound 1 µM, first compound 0.000316 µM): 36.7%
viability, T/C (second compound 1 µM, first compound 0.001 µM): 36.2%
viability, T/C (second compound 1 µM, first compound 0.00316 µM): 30.8%
viability, T/C (second compound 1 µM, first compound 0.01 µM): 24.9%
viability, T/C [19]: 22.3%
viability, T/C [20]: 18.5%
viability, T/C (second compound 3.16 µM, first compound 0.000316 µM): 21.4%
viability, T/C (second compound 3.16 µM, first compound 0.001 µM): 19.9%
viability, T/C (second compound 3.16 µM, first compound 0.00316 µM): 20.1%
viability, T/C (second compound 3.16 µM, first compound 0.01 µM): 15.6%
viability, T/C [25]: 13.6%
viability, T/C [26]: 9.08%
viability, T/C (second compound 10 µM, first compound 0.000316 µM): 11.7%
viability, T/C (second compound 10 µM, first compound 0.001 µM): 10.7%
viability, T/C (second compound 10 µM, first compound 0.00316 µM): 8.74%
viability, T/C (second compound 10 µM, first compound 0.01 µM): 9.19%
viability, T/C [31]: 6.42%
viability, T/C [32]: 5.01%

CC(Nc1ccc2c(c1)OCCn1cc(N3C(=O)OCC3C(F)F)nc1-2)C(N)=O (stereo unspecified) + C#Cc1c(F)ccc2cc(O)cc(-c3ncc4c(N5CC6CCC(C5)N6)nc(OCC56CCCN5CC(F)C6)nc4c3F)c12
IC50 (second compound 0.0316 µM): 205 nM
IC50 (second compound 0.1 µM): 211 nM
IC50 (second compound 0.316 µM): 38.6 nM
IC50 (second compound 1 µM): < 31.6 nM
IC50 (second compound 3.16 µM): < 31.6 nM
IC50 (second compound 10 µM): < 31.6 nM
viability, T/C [1]: 77.6%
viability, T/C [2]: 56.2%
viability, T/C [3]: 46.9%
viability, T/C [4]: 38.2%
viability, T/C [5]: 35%
viability, T/C [6]: 31.9%
viability, T/C [7]: 73.5%
viability, T/C [8]: 62.1%
viability, T/C [9]: 43.2%
viability, T/C [10]: 32.1%
viability, T/C [11]: 30.7%
viability, T/C [12]: 26%
viability, T/C [13]: 53.1%
viability, T/C [14]: 38%
viability, T/C [15]: 31.3%
viability, T/C [16]: 30.3%
viability, T/C [17]: 28.4%
viability, T/C [18]: 22.2%
viability, T/C [19]: 26.7%
viability, T/C [20]: 25.6%
viability, T/C [21]: 20.9%
viability, T/C [22]: 19.1%
viability, T/C [23]: 18.3%
viability, T/C [24]: 14.8%
viability, T/C [25]: 16.6%
viability, T/C [26]: 14.6%
viability, T/C [27]: 11.5%
viability, T/C [28]: 12.6%
viability, T/C [29]: 10%
viability, T/C [30]: 7.52%
viability, T/C [31]: 9.27%
viability, T/C [32]: 6.91%
viability, T/C [33]: 5.66%
viability, T/C [34]: 5.21%
viability, T/C [35]: 5.4%
viability, T/C [36]: 4.6%
